Test results taken from patent US20160251402A1, “MICROPEPTIDES AND USE OF SAME FOR MODULATING GENE EXPRESSION” (UNIVERSITE PAUL SABATIER TOULOUSE III, priority 2013, published 2016).

Tested on: HsmiR155
Experiment: Relative expression of Pre-miR155 in transfected HeLa cells
Assay type: cell-based, Homo sapiens
Details: HeLa cells transfected to overexpress HsmiPEP155
Source text: The DNA fragments of interest (HsmiPEP155 and the mutated miPEP) were synthesized or amplified by PCR using specific primers, and then cloned using the enzymes XhoI and NotI into a pUAS plasmid permitting their overexpression by means of the GAL4 transcription factor, the expression of which is controlled by a constitutive strong promoter.
The different constructs were produced either by PCR amplification on genomic DNA of HeLa cells, or by RT-PCR on total RNAs of L428 human cells. The amplified PCR fragments are digested with the HindIII/EcoRI restriction enzymes and then cloned into the vector pcDNA3.1. The DH5α strain of Escherichia coli is electroporated and then cultured on a solid medium (2YT+agar+ampicillin). The plasmid DNA from different clones is then prepared and sequenced for verification. The constructs are then prepared using the QIAfilter Plasmid Midi kit (QIAGEN) and stored at −20° C.
The HeLa cells (established tumour line, ATCC CCL-2.2) are cultured in a 6-well plate in complete medium [(DMEM (1x)+Glutamax+4.5 g/L glucose without pyruvate+1x penicillin/streptomycin+1 mM Na-pyruvate+10% calf serum] and placed in an incubator at 37° C. and 5% CO2.
The cells are transfected when they are at 50% confluence. […]
10-15 μg of total RNAs is then analysed by Northern blot on 15% acrylamide gel [solution of acrylamide/40% bis-acrylamide, ratio 19:1], 7M urea in TBE 1x. […]

MEMALMVAQTRKGKSVV (listed as Homo sapiens) [HsmiPEP155]
relative expression of Pre-miR155: increases the expression of HsmiR155
